Laboratory results as given in patent US8465921B2, “Hybridization and mismatch discrimination using oligonucleotides conjugated to minor groove binders” (Elitech Holding B.V., priority 1995, dated 2013).

Key:
[1] = tested on: complementary oligonucleotide; experiment: Thermal denaturation of hybrids of ODNs and MGB-ODN conjugates with their complements (Table 6); format: binding; conditions: 2 μM ODN, 1:1 with complement; 140 mM KCl, 10 mM MgCl2, 20 mM HEPES-HCl (pH 7.2); 0.5° C./min
Method: Hybrids formed between MGB-oligonucleotide conjugates or unmodified oligonucleotides and their complements were melted at a rate of 0.5° C./min in 140 mM KCl, 10 mM MgCl2 and 20 mM HEPES-HCl (pH 7.2) on a Lambda 2S (Perkin Elmer) spectrophotometer with a PTP-6 automatic multicell temperature programmer. Each oligonucleotide (2 μM) was mixed with sufficient complementary oligonucleotide to give a 1:1 ratio. Prior to melting, samples were denatured at 100° C. and then cooled to the starting temperature over a 10 min period. The melting temperatures (Tm) of the hybrids were determined from the derivative maxima and collected in Table 6. In the “sequence” column of Table 6, MGB refers to the presence of CDPI3 conjugated through a hexylamine linker esterified to the 5′-phosphate group of the oligonucleotide (see FIG. 2).

[2] = tested on: E. coli supF gene contained in the plasmid pSP189; experiment: Hydrolyzable probe assay with ppG-substituted 15-mer probe (Example 3); format: biochemical; conditions: annealing/elongation at 75° C. (FIG. 6)
Excerpt: Further increases in discriminatory ability of a MGB-oligonucleotide conjugate are obtained when the conjugate also contains a pyrazolo[3,4-d]pyrimidine nucleotide analogue. In this system, the target sequence is located in the E. coli supF gene contained in the plasmid pSP189 (FIG. 5, SEQ ID No.: 40). See Parris et al. (1992) Gene 117: 1-5. Binding sites for the primers used for amplification are indicated as Primer 1 and Primer 2, with Primer 1 having a sequence and polarity that is identical to that shown in FIG. 5, and Primer 2 having a sequence and polarity that is the reverse complement to that shown in FIG. 5. A 15-mer probe, labeled with fluorescein at the 5′-end, and with TAMRA and CDPI3 at the 3′-end, was designed to be complementary to a region within the approximately 375 nucleotides between the primers, as indicated in FIG. 5. This probe was tested using a series of templates, each containing a different single-nucleotide mismatch with the probe sequence, as shown in FIG. 5 and described infra.
The 15-nucleotide region of the template that is complementary to the probe used in this study was modified to generate a series of point mutations, as shown in FIG. 5. Each of the mutant templates was used in a separate assay with the 15-mer probe. The mutant sequences within this region of the template were as follows, with the mismatched nucleotide indicated by bold underlining: […]

[3] = tested on: HIA DQβ1 0302 allele in BSM cells; experiment: Sequence-specific alkylation of a gene in cultured human cells (cell culture crosslinking, LM-PCR); format: cell-based
[4] = tested on: exact complement; experiment: Tm of 8-mer oligonucleotides with varying A + T content, with and without MGB (Table 11); format: binding; conditions: MGB-conjugated 8-mer hybridized with its exact complement
Method: Short oligonucleotides of differing A+T content, conjugated to a MGB, were used to investigate the effect of base composition on Tm for MGB-short oligonucleotide conjugates (Table 11). Tms were determined on a Perkin Elmer) λ2S UV/VIS spectrophotometer, equipped with a PTP-6 temperature controller, using the PECSS software package.

[5] = tested on: long single stranded DNA template; experiment: Primer extension experiment (blockage of T7 DNA polymerase by ODN); format: biochemical; conditions: template 5×10^−10 M, primer 4×10^−8 M, blocking ODN 10^−9 M; 15 min at 45° C.; denaturing gel
Method: In this experiment, primer extension occurs with the enzyme T7 DNA polymerase that works from the 5′ end of a template strand. A 16-mer ODN-MGB which was complementary in the Watson Crick sense to a target sequence on the template strand was incubated with a long single stranded DNA template and the T7 DNA polymerase enzyme. […] The minor groove binder was the pyrroloindole tripeptide shown in this application in Table 5. When there was a single mismatch in the sequence specificity of the 16-mer to the target, primer extension was not blocked. Primer extension Was also not blocked when the minor groove binder moiety was attached to the 3′ end of the 16-mer. Primer extension was also not blocked when the sequence specific 16-mer and the free minor groove binder molecule (Compound 3d, not covalently attached to the ODN) was incubated with the template and the enzyme. […] (See Nucleic Acid Research (1993) 21: 5332-5336).
Primer extension reactions were performed as previously described by Lee, et al., (1994) Biochemistry 33: 6024-6030. The final concentrations of template, primer and blocking ODMs were 5×10^−10 M, 4×10^−8 M and 10^−9 M, respectively. Primer extension was carried out for 15 min at 45° C. and the products were analyzed by denaturing gel electrophoresis as described in the reference. […]

| Substance | Tm [1] [°C] | further results |
| --- | --- | --- |
| 1 (DNA ATAAAACAGAGGTGAG; DNA, backbone not given here) [compound 1] | 45 | – |
| 2 (DNA ATAAAACAGAGG; DNA, backbone not given here) [compound 2] | 39 | – |
| 3 (DNA ATAAAACAGA; DNA, backbone not given here) [compound 3] | 24 | – |
| 4 (DNA TAATAACGTTCGGGCA; DNA, backbone not given here) [compound 4] | 50 | – |
| 5 (DNA ATAACG; DNA, backbone not given here) [compound 5] | 16 | – |
| 5'-GGGTTCCCGAGCGGC (chemistry not fully specified) [MGB-conjugated 15-mer, 5′-fluorescein, 3′-TAMRA and CDPI3 probe, all guanine residues replaced by ppG] | – | generation of signal with single-base mismatch [2]: completely suppressed; level of signal with perfect match [2]: no effect on the level of signal |
| 5′-GGTTATTTTTGAAGATACGAATTTCUCCAGAGACACAGCAGGATTTGTCA-CDPI3 [CDPI3-containing 50-mer] | – | alkylation of the targeted site ([3]; 1-50 μM, […], LM-PCR, sequencing gel): had bound to and alkylated the targeted site; efficiency of sequence specific alkylation of the 0302 allele versus the same ODN without the MGB ([3]; […] at 37° C.): 10 fold |
| 5′-MGB-CAATAATA: 8-mer MGB-oligonucleotide conjugate | – | Tm + MGB [4]: 45 °C |
| 8 (DNA CGGGCAAA; DNA, backbone not given here) [compound 8] | 25 | – |
| 9 (DNA CGGGCAAAGGATTTAA; DNA, backbone not given here) [compound 9] | 47 | – |
| 10 (DNA GGCAAA; DNA, backbone not given here) [compound 10] | <17 | – |
| 11 (DNA CGGCTCTA; DNA, backbone not given here) [compound 11] | 23 | – |
| 12 (DNA CGGCTCTAATCTATTA; DNA, backbone not given here) [compound 12] | 43 | – |
| 13 (DNA TATTTTAGATAACCTT; DNA, backbone not given here) [compound 13] | 34 | – |
| [3-carbamoyl-1,2-dihydro-3H-pyrrolo[3,2-e]indole-7-carbox]-1-amido-3-propanol Trmer [Compound 3d] | – | blockage of primer extension by T7 DNA polymerase [5]: not blocked |
